Results from patent US20260226073A1 (AURIGENE ONCOLOGY LIMITED, priority 2023, published 2026).
pEC50, pIC50: −log10 of the molar value.

Legend:
[1] = biological target: T1, human recombinant CBL-b (human Biotin CBL-b recombinant protein a.a. 39-426) (Homo sapiens, UniProt Q13191); test: Biochemical assay for CBL-b inhibition (ligand displacement TR-FRET); assay type: binding; settings: 50 nM CBL-b, 0.3 μM Bodipy FL-Probe, read-out: IC50 (CBL-b inhibition, group)
T1 construct: human Biotin CBL-b recombinant protein a.a; 39-426; Biotin (biotinylated); made in house
Outline: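 Biotinylated CBL-b (a.a. 39-426, 50 nM final) pre-incubated with compound 60 min at RT in HEPES/NaCl/Triton/BSA/TCEP buffer, then Bodipy FL probe (0.3 μM final) 60 min, then terbium-streptavidin 60 min. TR-FRET read at 665/615 nm; IC50 and % max inhibition from sigmoidal fits.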

[2] = system: NFAT signaling pathway in Jurkat NFAT reporter cells; test: Jurkat NFAT reporter assay; assay type: cell-based; settings: Homo sapiens, 30 min with compound, then soluble anti-human CD3/CD28 antibody for 6 hours, luciferase readout, read-out: EC50 (Group)
Description: A human T lymphocyte Jurkat reporter cell line was further used to assess activation of the nuclear factor of activated T-cells (NFAT) signaling pathway by Cbl-b inhibitors. The reporter cell line is a genetically engineered Jurkat T cell line that expresses a luciferase reporter driven by an NFAT-response element (NFAT-RE). The Cbl-b inhibitor was incubated with 1×10^5 Jurkat NFAT reporter cells per well for 30 minutes. Subsequently, cells were stimulated with soluble anti-human CD3/CD28 antibody for 6 hours resulting in NFAT-RE-mediated luminescence. The bioluminescent signal is detected and quantified using Bio-Glo™ Luciferase Assay System. Readouts were reported as fold change over baseline. Here, baseline was the measurement obtained from Jurkat NFAT reporter cells stimulated with anti-CD3 antibody and anti-CD28 antibody, where the cells were not incubated with a Cbl-b inhibitor.

T1 sequence (Q13191 39-426): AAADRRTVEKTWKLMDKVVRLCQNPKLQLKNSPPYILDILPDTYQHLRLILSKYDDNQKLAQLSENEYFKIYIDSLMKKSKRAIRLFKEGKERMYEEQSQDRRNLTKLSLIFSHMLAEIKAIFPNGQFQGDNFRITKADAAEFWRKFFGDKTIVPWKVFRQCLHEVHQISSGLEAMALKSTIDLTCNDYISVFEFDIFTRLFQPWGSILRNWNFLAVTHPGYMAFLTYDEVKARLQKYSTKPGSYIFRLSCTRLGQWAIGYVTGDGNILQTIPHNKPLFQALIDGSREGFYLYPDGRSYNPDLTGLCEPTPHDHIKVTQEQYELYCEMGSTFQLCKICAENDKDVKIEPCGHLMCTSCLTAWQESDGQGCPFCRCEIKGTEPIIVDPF

| Structure (SMILES) | pIC50 [1] | pEC50 [2] |
| --- | --- | --- |
| C[C@H](NC1CCCC1)c1cc(Cl)nc(N2Cc3ccc(C4(Cc5nncn5C)COC4)cc3C2=O)c1 (single isomer, unassigned) [Compound 231] | > 7.10 | > 6.52 |
| C[C@@H](NC1CCCC1)c1cc(Cl)nc(N2Cc3ccc(C4(Cc5nncn5C)COC4)cc3C2=O)c1 (single isomer, unassigned) [Compound 232] | > 7.10 | > 6.52 |
| Cn1cnnc1C[C@]1(c2ccc3c(c2)C(=O)N(c2cc(CNCC4CC4)cc(Cl)n2)C3)C[C@H](C#N)C1 (single isomer, unassigned) [Compound 233, (1r,3r)-3-(2-(6-Chloro-4-(((cyclopropylmethyl)amino)methyl)pyridin-2-yl)-3-oxoisoindolin-5-yl)-3-((4-methyl-4H-1,2,4-triazol-3-yl)methyl)cyclobutane-1-carbo-nitrile] | > 7.10 | > 6.52 |
| Cn1cnnc1C[C@]1(c2ccc3c(c2)C(=O)N(c2cc(CNCC4CC4)cc(Cl)n2)C3)C[C@@H](C#N)C1 (single isomer, unassigned) [Compound 234, (1s,3s)-3-(2-(6-Chloro-4-(((cyclopropylmethyl)amino)methyl)pyridin-2-yl)-3-oxoisoindolin-5-yl)-3-((4-methyl-4H-1,2,4-triazol-3-yl)methyl)cyclobutane-1-carbonitrile] | > 7.10 | 5.00 to 6.00 |
| C[C@H](N[C@H](C)c1cc(Cl)nc(N2Cc3ccc(C4(Cc5nncn5C)COC4)cc3C2=O)c1)C1CC1 (single isomer, unassigned) [Compound 239] | > 7.10 | > 6.52 |
| C[C@H](N[C@H](C)C1CC1)c1cc(Cl)nc(N2Cc3ccc(C4(Cc5nncn5C)COC4)cc3C2=O)c1 (single isomer, unassigned) [Compound 240] | > 7.10 | > 6.52 |
| Cn1cnnc1C[C@]1(c2ccc3c(c2)C(=O)N(c2cc(CNCC4CCC4)cc(Cl)n2)C3)C[C@H](C#N)C1 (single isomer, unassigned) [Compound 244, (1r,3r)-3-(2-(6-Chloro-4-(((cyclobutylmethyl)amino)methyl)pyridin-2-yl)-3-oxoisoindolin-5-yl)-3-((4-methyl-4H-1,2,4-triazol-3-yl)methyl)cyclobutane-1-carbonitrile] | > 7.10 | > 6.52 |
| C[C@H](N[C@@H](C)C1CC1)c1cc(Cl)nc(N2Cc3ccc(C4(Cc5nncn5C)COC4)cc3C2=O)c1 (single isomer, unassigned) [Compound 246] | > 7.10 | > 6.52 |
| C[C@H]1CCCN(Cc2cc(F)cc(N3Cc4ccc(C5(Cc6nncn6C)COC5)cc4C3=O)c2)C1 [Compound 3, (S)-2-(3-Fluoro-5-((3-methylpiperidin-1-yl)methyl)phenyl)-6-(3-((4-methyl-4H-1,2,4-triazol-3-yl)methyl)oxetan-3-yl)isoindolin-1-one] | > 7.10 | 5.00 to 6.00 |
| COc1cc(CN2CCC[C@H](C)C2)cc(N2Cc3ccc(C4(Cc5nncn5C)COC4)cc3C2=O)c1 [Compound 5, (S)-2-(3-Methoxy-5-((3-methylpiperidin-1-yl)methyl)phenyl)-6-(3-((4-methyl-4H-1,2,4-triazol-3-yl)methyl)oxetan-3-yl)isoindolin-1-one] | 6.52 to 7.10 | 5.00 to 6.00 |
| C[C@H]1CCCN(Cc2cc(C3CC3)cc(N3Cc4ccc(C5(Cc6nncn6C)COC5)cc4C3=O)c2)C1 [Compound 7, (S)-2-(3-Cyclopropyl-5-((3-methylpiperidin-1-yl)methyl)phenyl)-6-(3-((4-methyl-4H-1,2,4-triazol-3-yl)methyl)oxetan-3-yl)isoindolin-1-one] | 6.52 to 7.10 | 6.00 to 6.52 |
| C[C@H]1CCCN(Cc2cccc(N3Cc4ccc(C5(Cc6nncn6C)COC5)cc4C3=O)c2)C1 [Compound 8, (S)-6-(3-((4-Methyl-4H-1,2,4-triazol-3-yl)methyl)oxetan-3-yl)-2-(3-((3-methyl-piperidin-1-yl)methyl)phenyl)isoindolin-1-one] | 5.30 to 6.52 | 5.00 to 6.00 |
| C=Cc1cc(CN2CCC[C@H](C)C2)cc(N2Cc3ccc(C4(Cc5nncn5C)COC4)cc3C2=O)c1 [Compound 9, (S)-6-(3-((4-Methyl-4H-1,2,4-triazol-3-yl)methyl)oxetan-3-yl)-2-(3-((3-methyl-piperidin-1-yl)methyl)-5-vinylphenyl)isoindolin-1-one] | 6.52 to 7.10 | 6.00 to 6.52 |
| C[C@H]1CCCN(Cc2cc(Br)cc(N3Cc4ccc(C5(Cc6nncn6C)COC5)cc4C3=O)c2)C1 [Compound 10, (S)-2-(3-Bromo-5-((3-methylpiperidin-1-yl)methyl)phenyl)-6-(3-((4-methyl-4H-1,2,4-triazol-3-yl)methyl)oxetan-3-yl)isoindolin-1-one] | > 7.10 | > 6.52 |
| Cn1cnnc1CC1(c2ccc3c(c2)C(=O)N(c2cc(CNCC4CC4)cc(C(F)(F)F)c2)C3)COC1 [Compound 13, 2-(3-(((Cyclopropylmethyl)amino)methyl)-5-(trifluoromethyl)phenyl)-6-(3-((4-methyl-4H-1,2,4-triazol-3-yl)methyl)oxetan-3-yl)isoindolin-1-one] | 6.52 to 7.10 | 5.00 to 6.00 |
| C[C@H]1CCCN(Cc2cc(N3CCCCC3)cc(N3Cc4ccc(C5(Cc6nncn6C)COC5)cc4C3=O)c2)C1 [Compound 14, (S)-6-(3-((4-Methyl-4H-1,2,4-triazol-3-yl)methyl)oxetan-3-yl)-2-(3-((3-methyl-piperidin-1-yl)methyl)-5-(piperidin-1-yl)phenyl)isoindolin-1-one] | 5.30 to 6.52 | 5.00 to 6.00 |
| CC(C)c1cc(CN2CCC[C@H](C)C2)cc(N2Cc3ccc(C4(Cc5nncn5C)COC4)cc3C2=O)c1 [Compound 15, (S)-2-(3-Isopropyl-5-((3-methylpiperidin-1-yl)methyl)phenyl)-6-(3-((4-methyl-4H-1,2,4-triazol-3-yl)methyl)oxetan-3-yl)isoindolin-1-one] | 6.52 to 7.10 | 6.00 to 6.52 |
| C[C@H]1CCCN(Cc2cc(N3Cc4ccc(C5(Cc6nncn6C)COC5)cc4C3=O)cc(C(C)(C)C)c2)C1 [Compound 16, (S)-2-(3-(tert-Butyl)-5-((3-methylpiperidin-1-yl)methyl)phenyl)-6-(3-((4-methyl-4H-1,2,4-triazol-3-yl)methyl)oxetan-3-yl)isoindolin-1-one] | 6.52 to 7.10 | 6.00 to 6.52 |
| C[C@H]1CCCN(Cc2cc(N3Cc4ccc(C5(Cc6nncn6C)COC5)cc4C3=O)cc(C(F)(F)F)n2)C1 [Compound 17, (S)-6-(3-((4-Methyl-4H-1,2,4-triazol-3-yl)methyl)oxetan-3-yl)-2-(2-((3-methyl-piperidin-1-yl)methyl)-6-(trifluoromethyl)pyridin-4-yl)isoindolin-1-one] | 5.30 to 6.52 | 5.00 to 6.00 |
| Cc1cc(CNCC2CC2)cc(N2Cc3ccc(C4(Cc5nncn5C)COC4)cc3C2=O)c1 [Compound 18, 2-(3-(((Cyclopropylmethyl)amino)methyl)-5-methylphenyl)-6-(3-((4-methyl-4H-1,2,4-triazol-3-yl)methyl)oxetan-3-yl)isoindolin-1-one] | > 7.10 | 5.00 to 6.00 |
| Cc1cc(CNCCC(F)(F)F)cc(N2Cc3ccc(C4(Cc5nncn5C)COC4)cc3C2=O)c1 [Compound 19, 6-(3-((4-Methyl-4H-1,2,4-triazol-3-yl)methyl)oxetan-3-yl)-2-(3-methyl-5-(((3,3,3-trifluoropropyl)amino)methyl)phenyl)isoindolin-1-one] | > 7.10 | 6.00 to 6.52 |
